For data set [1], the system named is proteasome (CT-L, T-L and C-L activity). Briefly: Blood proteasome inhibition (CT-L, T-L, C-L activity in packed whole blood and PBMC lysates). The data set is classed as in vivo, human. The conditions noted are these: for % C-L inhibition / % CT-L inhibition / % T-L inhibition: PWB, post-Marizomib infusion (peak effect). The text has this: The drugs were infused on 28-Day Cycles.
Change in proteasome activities in packed whole blood (PWB) lysates and peripheral blood mononuclear cell (PBMC) lysates, comparing pre-drug and post drug levels on Days 1, 8, and 15 of Cycle 1; Days 1 and 15 of each Cycle thereafter; and at the End-of Treatment Visit.
The laboratory correlates include assessment of the percentage inhibition of proteasome function (evaluated by measurement of CT-L, T-L and C-L activity in blood isolates such as whole blood and PBMC lysates.
PD analysis will include change in proteasome activities (whole blood lysates and PBMC lysates) by comparing pre-drug and post drug levels on Days 1, 8, and 15 (i.e., for each dose) of Cycle 1 and Days 1 and 15 (i.e., for the first and last doses) of each cycle thereafter.

Data set [2] is described as follows: Marizomib blood pharmacokinetics (Part 1 Phase 1). To be noted: for AUC(0-t) / Cmax / Tmax / Vd / half-life: human, whole blood, intravenous.
Experimental: Blood samples will be taken for peak and trough measurements, pre-dose and immediately prior to (end of infusion) EOI, on Cycle 1 Day 1. On Cycle 1 Day 15 full PK sampling will be done: pre-dose, immediately prior to EOI and then 2, 5, 15, 30, 45, 60, 90 and 120 minutes post infusion. The following PK parameters will be estimated by non-compartmental analysis:
Non-compartmental analyses will be performed. […] Blood concentrations and computed PK parameters for MRZ will be listed and summarized by cohort (mean, geometric mean, standard deviation, coefficient of variation, minimum, maximum and number of observations).
Blood should be drawn from the contralateral arm to the infusion site and using an indwelling catheter to avoid multiple needle sticks is recommended. Sample collection time should be recorded on the tube label and Case Report Form (CRF) as day: hour: minute. Nominal time of blood collection are given as “time points”; it is critical that an accurately collected actual time of the sample is written on the CRF and on the blood tubes (date entered as dd:mm:yyyy; time entered using a 24-hour clock, hh:mm). For MRZ samples will be obtained before treatment and just prior to end of infusion on Cycle 1 Day 1. On Cycle 1 Day 15, MRZ blood samples will be obtained before treatment, just prior to end of infusion, and 2, 5, 15, 30, 45, 60, 90, and 120 minutes after the infusion. Every effort should be made to collect samples at the prescribed times, but deviations up to 10% of the time point are allowed. Additional samples may be collected if the subject experiences a potentially drug-related SAE. After blood collection, neutralizing solution must be added. Use Sponsor-provided PK kits. Process, store and ship samples per instructions in Study Reference Manual.
Non-compartmental analyses will be performed.

Structures are written as SMILES.

For the molecule `C[C@@]12OC(=O)[C@]1([C@@H](O)[C@@H]1C=CCCC1)NC(=O)[C@@H]2CCCl` [MRZ, marizomib], in data set [1] (0.7 mg/m^2), the “% C-L inhibition” value is listed as 50.4 ± 9.1 (3) %, the “% CT-L inhibition” value is recorded as 100 ± 0 (3) % and the “% T-L inhibition” value was 77.3 ± 10.5 (3) %. Besides, in data set [1] (0.8 mg/m^2), the “% C-L inhibition” value was 51.9 ± 8.3 (3) %, the “% CT-L inhibition” value is 100 ± 0 (3) % and the “% T-L inhibition” value is on record as 69.3 ± 7.2 (3) %. Also, the “Proteasome inhibition on chymotrypsin-like (CT-L) domains” value in data set [1] (cohorts 1 and 2) was “maximal”. Besides, the “trypsin-like (T-L) and caspase-like (C-L) activity” value in data set [1] (cohorts 1 vs 2) was “Dose-dependent inhibition”. Besides, in data set [2] (MRZ 0.7 mg/m^2, C1D8), the CLobs is listed as 272 ± 166 (3) L/hr. Also, the CLobs in data set [2] (MRZ 0.8 mg/m^2, C1D8) is 304 ± 85.0 (3) L/hr. The pharmacokinetic parameters entry in data set [2] (co-administration with bevacizumab) was “consistent with published parameters and not affected by co-administration”. Also, in data set [2] (0.7 mg/m2), the AUC(0-t) is 3.22 ng·h/mL, the Cmax worked out at 64.9 ± 1.73 ng/mL, the Tmax was 21.3 min and the volume of distribution (Vd) was 48.3 ± 16.1 L. Besides, in data set [2] (0.7 mg/m2), the half-life stood at 16 ± 8.08 min. Moreover, in data set [2] (0.8 mg/m2), the area under the curve AUC(0-t) is 6.53 ng·h/mL, the highest level (Cmax) was 26.5 ± 7.92 ng/mL, the Tmax is 8 min and the Vd was determined as 55 ± 19.7 L. The molecule further showed a half-life in data set [2] (0.8 mg/m2) of 7.27 ± 0.423 min. In addition, in data set [2] ([…]2), the Tmax is 15.5 min, the Vd stood at 54.4 ± 10.6 L and the half-life amounted to 8.2 ± 0.8 min.

Values taken from patent US20200085789A1, “USE OF A PROTEASOME INHIBITOR FOR THE TREATMENT OF CENTRAL NERVOUS SYSTEM (CNS) CANCERS” (Celgene International II Sàrl, priority 2017, published 2020).
